The test system of this assay is diet-induced obese (DIO) mice. The assay is described as follows: Chronic treatment in diet-induced obese mice (body weight, body composition, ITT, glucose). Type of assay: in vivo, mouse. To be noted: for AUC of glucose during ITT: mean±SEM, vehicle 12812.50±750.35. As to the method:
The aim of the study was to determine whether the compound AOL, administered daily at the doses of 5 mg/kg and 10 mg/kg for up to five weeks by intraperitoneal (i.p.) daily administration in diet-induced obese (DIO) mice fed with a high-fat diet (HFD), modifies food intake, body weight, adiposity and glucose metabolism.
Mice were fed ad libitum with a HFD (60% of calories from fat, mostly lard) for twelve weeks before the pharmacological study begun. Animals received AOL or its vehicle by intraperitoneal (i.p.) administration and were maintained on HFD for the length of the study. Food intake and body weight were measured daily and recorded for up to three consecutive weeks.
Thirty 7-weeks-old male C57/B16J mice arrived to the laboratory on 25 Feb. 2016 and underwent a first in vivo body composition analysis (Echo MRI 900, EchoMRI Systems) after 1 week of adaptation to the experimental housing room. After this first MRI analysis, animals were fed a high-fat diet (HFD) ad libitum for a period of twelve weeks. Thereafter, they underwent a second MRI analysis and were distributed into 3 experimental groups of equivalent body weight and body composition.
Once the pharmacological treatment started (day 1), food intake (FI) and body weight (BW) were measured daily before the dark phase in animals housed in their home cage. Spillage of food was checked daily. The food consumed was calculated by subtracting the food left in the hoppers from the initial pre-weighted amount. FI and BW were measured for three consecutive weeks. Afterwards animals underwent a third MRI analysis in order to observe potential effects of the treatment onto the body composition (changes in fat and lean mass), followed by a glucose tolerance test (GTT) and an insulin tolerance test (ITT). Mice received daily i.p. administration of AOL or its vehicle for a total length of five weeks, until they were sacrificed.
A nuclear echo magnetic resonance imaging whole-body composition analyzer (Echo MRI 900; EchoMedical Systems) was used to repeatedly assess body fat and lean mass in conscious mice.
Animals were injected i.p. with 1.5 g/kg of D-Glucose (Sigma-Aldrich) for the GTT or with 0.5 U/kg of insulin (Humulin, Lilly, France) for the ITT. For the GTT and the ITT, animals were fasted overnight. The tests were conducted the following morning. Blood samples were taken from the tail vein at different time points (0, 15, 30, 60, 90 and 120 minutes after the i.p. administration of glucose or insulin) and glucose concentration was measured using glucose sticks (OneTouch Vita, Lifescan France, Issy les Moulineaux, France).
At sacrifice, blood samples were collected, blood glucose was rapidly assessed using glucose sticks and blood samples were then centrifuged at 3000 rpm for 15 minutes. The obtained plasma was stored at −80° C. for subsequent measurement of insulin, which was carried out by performing an ELISA (kit from Mercodia, Uppsala, Sweden), according to the manufacturer's instructions.

Regarding `COc1ccc(-c2cc(=S)ss2)cc1` [AOL, 5-(4-methoxyphenyl)-3H-1,2-dithiole-3-thione], for the setting “5 and 10 mg/kg i.p. daily, HFD, three weeks”, the “effect on body weight” value is “did not have a significant effect”. Also, for the setting “AOL 5 mg/kg”, the “AUC of glucose during ITT” value stood at 15006.56±1139.69. For the same molecule, where the note is “AOL 10 mg/kg”, the “action of insulin on circulating glucose levels during an ITT” value is reported as “significantly blunted the action of insulin” and the “AUC of glucose during ITT” value is given as 18168.33±1562.90. The blood glucose levels result (after five weeks of treatment, 2-hour fasted mice) was “tended to decrease blood glucose levels”. Besides, the lean mass entry (after three weeks of chronic administration) was “did not have any effect on lean mass”. Under “after three weeks of chronic administration, p=0.13”, the fat mass entry is recorded as “tended to reduce fat mass”. In addition, for the setting “chronic daily administration, data not shown”, the “body weight and food intake” value is “tended to decrease body weight and food intake”.
